Test results published in US20010000786A1, “Product for promoting weight loss in overweight dogs” (priority 1998, published 2001).

Legend:
overweight dogs [1] = test: Body weight and food intake of overweight dogs fed low-fat diets with supplemental L-carnitine; type: in vivo, beagle dogs; settings: for average voluntary consumption of the diet: seven weeks of feeding; for body weight change: seven weeks ad libitum, P<0.05 from control
Excerpt: (§1) Thirty adult ovariohysterectomized female beagle dogs were used to study the effects of L-carnitine supplementation on weight loss. All of the animals were current on their vaccination and parasite prevention program. The dogs were housed individually in oversize pens and identified by a unique ear tattoo. Fresh water was provided ad libitum during the entire study period. Food intake was adjusted as necessary to achieve the desired weight for the study period.
Three dietary treatments were evaluated. The study consisted of three periods: weight gain, maintenance, and weight loss. During the eleven-week weight gain period, all dogs were fed a single diet Eukanuba Veterinary Diets® Nutritional Recovery Formula™ which contains 36.1 wt % protein, 26.1 wt % fat, and 2.1 wt % crude fiber) ad libitum.
(§2) At the initiation of the maintenance phase of the study (baseline or day 0), the dogs were randomized based on body weight into three dietary treatment groups of ten dogs each with a three day feed transition period starting on day 0. Each treatment group was randomly assigned to one of three low-fat diets (Table 1). The only difference between diets was the addition of 0, 50, or 100 ppm supplemental L-carnitine. No differences in the initial body weight or body condition score existed between groups.
The dogs were on 100% experimental diet on day 3 and were fed ad libitum during the seven-week maintenance phase of the study.
(§3) During the twelve-week weight loss phase of the study, the same experimental diets were offered as during the maintenance phase. However, the food intake was decreased to produce approximately 1.5 to 2.5% body weight loss per week. Exact amounts of experimental diets were fed to the dogs at approximately the same time each day, and remaining feed amounts were weighed the following day. Food intake and body weight were monitored daily and weekly, respectively. Whole body composition using the Dual Energy X-ray Absorptiometer (DEXA), and blood samples for CBC and chemistry were collected periodically during the study. Whole Body Composition by Dual Energy X-ray Absorptiometry. The dogs were scanned with a Hologic QDR-2000 Plus Dual-Energy X-Ray Absorptiometry (DEXA) bone densitometer, supported with Hologic MXA software, version 8.0. All dogs were anesthetized and placed on the Dual Energy X-ray Absorptiometry (DEXA) table in dorsal recumbency, with legs stretched caudally to avoid overlap of the legs over the body. The dogs were scanned using the Enhanced Array Whole Body software. The body composition measurements recorded consisted of surface area (cm^2), bone mineral content (BMC), bone mineral density (BMD), lean mass, fat content, percent fat, and estimated body weight. All measurements were reported in grams except for percent fat and area (cm^2). Percent lean and percent BMC were calculated from the lean mass, BMC, and estimated body weight data from the DEXA results.
A repeated measure classification analysis of variance was used to study “Treatment” and time dependent “Treatment×Time” effects (Gill and Hafs, J. Animal Sci. 33(2):331(1971)). The variables from the complete blood count, blood chemistry, body composition and body weights were studied using this analysis. All F-tests and mean separations using the Least Square Difference (LSD) used 0.05 Type 1 Error rate. […]

overweight dogs [2] = test: Whole body composition by Dual Energy X-ray Absorptiometry (DEXA); type: in vivo, beagle dogs
Excerpt: as §1, §2, §3
The whole body composition was performed concomitantly and under anesthesia. The anesthetic regimen consisted of Atropine (0.01 mg/lb) as a pre-anesthetic, the combination Xylazine/Telazol/Torbugesic (0.8/6.7/0.13 mg/kg) as induction and Isoflurane (Aerrane, Ohmeda Pharmaceutical Products, Liberty Corner, N.J.) as a maintenance agent using a nose cone.
A repeated measure classification analysis of variance was used to study “Treatment” and time dependent “Treatment×Time” effects (Gill and Hafs, J. Animal Sci. 33(2):331(1971)). The variables from the complete blood count, blood chemistry, body composition and body weights were studied using this analysis. All F-tests and mean separations using the Least Square Difference (LSD) used 0.05 Type 1 Error rate. One degree of freedom comparisons between experimental diets B versus C (comparison 1) and A versus B and C (comparison 2) were computed for the body composition and body weight variables. Comparisons 1 and 2 form an orthogonal set. An a of 0.05 was used to test for non-zero value of the mean of the two groups defined per contract. The “Treatment×Time” interaction was investigated by computing a test for linear, quadratic, and cubic response over time for each treatment. Then a test of parallelism, equal quadric response and equal cubic response was done to test equality of trend in response among treatments. An α of 0.05 for the F-tests was used in all cases. All computations were done using SAS (statistical analysis system) software (1989).

[3] = 50 ppm supplemental carnitine, Week 0
[4] = 50 ppm supplemental carnitine, Week 7
[5] = 100 ppm supplemental carnitine, Week 0
[6] = 100 ppm supplemental carnitine, Week 7

SMILES: C[N+](C)(C)C[C@H](O)CC(=O)[O-] [L-carnitine]
- total weight loss per total food intake compared with no supplementation (overweight dogs [1]; 50 and 100 ppm, FIG. 7, P<0.05): greater total weight loss per total food intake
- average voluntary consumption of the diet (overweight dogs [1]; 50 ppm carnitine): 1574 g/week
- body weight change (overweight dogs [1]; 50 ppm supplemental carnitine in low-fat diet): −6.4%
- average voluntary consumption of the diet (overweight dogs [1]; 100 ppm carnitine): 1567 g/week
- body weight change (overweight dogs [1]; 100 ppm supplemental carnitine in low-fat diet): −5.7%
- lean body mass compared with no supplementation (overweight dogs [2]; 50 and 100 ppm, FIG. 6): leaner body mass
- body fat loss compared to no (0 ppm) supplementation (overweight dogs [2]; 50 and 100 ppm, difference day 0 to day 49, day 92, day 133 as percentage of day 0, FIG. 5): more body fat loss (P<0.05)
- body fat loss compared to 0 ppm supplementation (overweight dogs [2]; 50 and 100 ppm, difference day 0 to day 49 as percentage of day 0, FIG. 4): more body fat loss (P<0.05)
- BMC (bone mineral content) as percent of total body mass (overweight dogs [2]; [3]): 1.6%
- Fat mass as percent of total body mass (overweight dogs [2]; [3]): 42.4%
- LBM (lean body mass) as percent of total body mass (overweight dogs [2]; [3]): 56.0%
- BMC (bone mineral content) as percent of total body mass (overweight dogs [2]; [4]): 1.7%
- Fat mass as percent of total body mass (overweight dogs [2]; [4]): 37.8%
- LBM (lean body mass) as percent of total body mass (overweight dogs [2]; [4]): 60.5%
- BMC (bone mineral content) as percent of total body mass (overweight dogs [2]; [5]): 1.6%
- Fat mass as percent of total body mass (overweight dogs [2]; [5]): 42.5%
- LBM (lean body mass) as percent of total body mass (overweight dogs [2]; [5]): 55.9%
- BMC (bone mineral content) as percent of total body mass (overweight dogs [2]; [6]): 1.6%
- Fat mass as percent of total body mass (overweight dogs [2]; [6]): 38.9%
- LBM (lean body mass) as percent of total body mass (overweight dogs [2]; [6]): 59.5%
